Entries after “also recorded” stand apart in the source; their conditions may differ.
Experiments:
TLR3 signaling = assay: IL-6 production (ELISA) in BEAS-2B cells induced with poly(I:C); type: cell-based, human; conditions: for Enhancement of TLR3 signaling / poly(I:C)-induced IL-6, in words: BEAS-2B cells
Description: (§1) IL-6 production was quantified by ELISA using the OptEIA™ kit (BD Biosciences). A typical assay used 2×10^4 BEAS-2B cells/well grown for 24 h in flat bottom 96-well plates. Poly(I:C) was added to a final concentration of 0.13 μg/ml. Antimicrobial peptides were added to the cell culture medium to a final concentration of 3 μM unless specified otherwise. All ELISA results shown were performed in triplicate and in at least three independent experiments.
(§2) To better define how residues in LL-37 contribute to function, several variants derived from LL-37 were tested for: 1) repression of TLR4 signaling by LPS, 2) enhancement of TLR3 signaling by poly(I:C), and 3) binding to LL-37. Signaling by TLR3 and TLR4 were monitored using ELISA to detect IL-6 secreted into the medium of BEAS-2B cells.

Reovirus dsRNA, Reo S4 = assay: IL-6 production in BEAS-2B cells in the presence of Reovirus dsRNA Reo S4; type: cell-based, human
Description: as §1
Herein, we analyzed the LL-37 orthologs from Rhesus monkeys, pig, sheep, guinea pigs, rabbit, as well as mouse (FIG. 14A). All peptides were chemically synthesized and assayed for the induction of inflammatory cytokine IL-6 in the presence of the double-stranded RNA mimic, poly(I:C) or the Reovirus dsRNA, Reo S4 (FIGS. 14B and 14C). […] Importantly, all LL-37 orthologs tested had the ability to reduce IL-6 production in response to LPS (FIG. 14E).

Toll-like receptor 9 = assay: IL-6 production in BEAS-2B cells in the presence of ssDNA ligand ODN; type: cell-based, human
TLR4 signaling = assay: IL-6 production (ELISA) in BEAS-2B cells induced with LPS; type: cell-based, human
Description: as §1, §2

[1] = Dynamic light scatter spectroscopy, hydrodynamic radius; type: physicochemical
Description: The hydrodynamic radii of LL-37 and other peptides were monitored by a Zetasizer Nano-S instrument (Malvern Instruments). All measurements were taken with 1 μM of peptide dissolved in phosphate buffer adjusted to the desired pH at 22° C.

f-LL37 = target: T1, f-LL37 (Homo sapiens, UniProt P49913); assay: Fluorescence polarization, interaction of peptides with fluorescein-labeled LL-37; type: binding
T1 sequence (P49913 134-170 limits assumed): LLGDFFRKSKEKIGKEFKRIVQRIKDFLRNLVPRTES
Description: Peptide binding to poly(I:C) was analyzed by monitoring fluorescence polarization using the Synergy H1 microplate reader (BioTek). Fluorescein-labeled LL-37 was titrated to a 100 μL solution containing poly(I:C) and phosphate buffers at different pHs. Interactions between LL-37 and other peptides were analyzed using LL-37 labeled at the N-terminus with fluorescein (0.1 μM), and peptides were titrated from 1 nM to 1000 nM in phosphate buffer at pH 7.0. Interaction between poly(I:C) and different peptides was determined by titrating fluorescein-labeled poly(I:C) (0.1 μM) with peptides added to final concentrations of 10 to 500 nM in phosphate buffer at pH 7.4. All polarization assays were performed in triplicate.

[2] = test system: Escherichia coli ATCC 25922; assay: MIC assay, broth microdilution (CLSI); type: cell-based; conditions: E. coli ATCC 25922
Description: MIC assays were performed according to protocols for broth microdilution according to the Clinical Laboratory Standards Institute (CLSI, 2015. Methods for Dilution Antimicrobial susceptibility tests for bacterial that grow aerobically; Approved standard—tenth edition).

[3] = test system: LL-37 enhancement of TLR3 signaling; assay: Antagonism of LL-37/poly(I:C)-enhanced IL-6 production in BEAS-2B cells; type: cell-based, human
Description: as §1
We examined whether LL-29 could affect the enhancement of TLR3 signaling by WT LL-37/poly(I:C). An increasing amount of LL-29 along with a constant amount of LL-37/poly(I:C) was used to assess IL-6 production in BEAS-2B cells. […] That is, LL-29 abrogated LL-37's ability to enhance TLR3 signaling. That is, LL-29 is an example of a peptide antagonist of LL-37 function.

TLR3 = assay: Confocal microscopy, co-localization with TLR3 in BEAS-2B cells; type: cell-based, human; conditions: added to fLL-37 and poly(I:C)
Description: Cells were grown on poly-L-lysine coated coverslips to 60% confluency. After 1 h incubation with fluorescently-labeled peptides in the absence or presence of poly(I:C), the cells were washed with PBS and fixed with 4% paraformaldehyde for 15 min at room temperature. The cells were again washed with PBS and mounted on glass slides with anti-fade mounting medium and DAPI (Life Technology), then dried overnight in the dark. Micrographs were acquired with a Leica TCS SP5 confocal inverted-base microscope with a 63× oil objective. Images were analyzed by Leica LAS AF and Image J software. Colocalization of fluorophores was quantified using the Image J plug-in tool JACoP (16).
We examined whether it could prevent the trafficking of LL-37/poly(I:C) to endosomes that harbor TLR3. Confocal microscopy was used to examine the effect of LL-29 on the colocalization of LL-37/poly(I:C) with TLR3 in BEAS-2B cells.

FPRL-1 receptor = target: T2, FPRL-1 receptor (Homo sapiens, UniProt P25090); assay: IL-6 production in BEAS-2B cells knocked down with siRNA (FPRL-1, EGFR, control); type: cell-based
T2 construct: a human lung epithelial cell line that expresses endogenous FPRL-1; endogenous in cells; host or cells: BEAS-2B
T2 sequence (P25090 1-351): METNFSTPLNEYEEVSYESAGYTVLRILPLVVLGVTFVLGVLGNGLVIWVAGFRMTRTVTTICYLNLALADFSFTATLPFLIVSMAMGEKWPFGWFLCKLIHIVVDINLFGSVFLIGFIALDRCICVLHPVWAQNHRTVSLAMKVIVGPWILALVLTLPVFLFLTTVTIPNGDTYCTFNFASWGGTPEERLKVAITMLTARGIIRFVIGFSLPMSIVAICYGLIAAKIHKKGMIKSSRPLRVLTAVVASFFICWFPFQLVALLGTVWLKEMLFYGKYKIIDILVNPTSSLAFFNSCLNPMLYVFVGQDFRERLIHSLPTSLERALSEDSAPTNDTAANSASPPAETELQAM
Description: BEAS-2B cells were seeded at 2×10^6 cells per 6-well plate for 6 h prior to transfection with 30 nM of a pool of three siRNAs from Santa Cruz Biotechnology. Transfections were done using Lipofectamine 2000.
Cells were grown on poly-L-lysine (Life Technologies). The level of target mRNA was analyzed using qRT-PCR and normalized to the levels of GAPDH mRNA. The sequences of the primers will be made available upon request. Poly(I:C) was added 48 h after siRNA transfection and IL-6 levels in the culture media were collected 24 h later.
LL-37's enhancement of TLR3 signaling required trafficking of LL-37/poly(:C) to endosomes via the FPRL-1 receptor. Therefore, we examined whether LL-29 used the FPRL-1 receptor to enter cells. siRNA was used to knock down the expression of either FPRL-1, EGFR, or TLR3. […] Co-localization of fLL-37 and rpIC was reduced to less than a third of the control. […] Knockdowns performed with siRNAs to either a nonspecific control or EGFR had no effect on the enhancement of IL-6 production.
Will LL-29 affect the use of the FPRL-1 receptor by the LL-37/poly(I:C) complex? BEAS-2B cells knocked down for FPRL-1 were treated with LL-37 along with additional concentrations of LL-37, Pentamide, LL-29, Peptide A, or LL8-37 (FIG. 6C). Signaling by TLR3 was determined by the amount of IL-6 secreted in the cell culture media. A control siRNA had no effect on WT LL-37/poly(I:C) enhancement of IL-6 production.
LL-37 uses the Formyl peptide receptor-like 1 (FPRL-1) receptor to deliver nucleic acids into endosomes, where activation of the Toll-like receptors that recognize nucleic acids takes place (Singh et al., 2014). We sought to determine whether the LL-37 orthologs from other mammals could also use the FPRL-1 in the human BEAS-2B cells to deliver dsRNA. BEAS-2B cells were treated with poly(I:C) along with the peptides and the peptides from pig, sheep, rabbit, and mouse had reduced ability to use the FPRL-1 to activate IL-6 production.

**Q.** Which results are given for “CAP-18: LL-37 ortholog from rabbit, SEQ ID NO: 24 (GLRKRLRKFRNKIKEKLKKIGQKIQGLLPKLAPRTDY; (1)..(37) Rabbit CAP-18)”?
**A.** Enhancement of TLR3 signaling / poly(I:C)-induced IL-6, in words (TLR3 signaling): failed to enhance signaling; Enhancement of IL-6 production / signaling by Reo S4, in words (Reovirus dsRNA, Reo S4): failed to enhance signaling; Induction of signaling by the ssDNA ligand for Toll-like receptor 9, in words (Toll-like receptor 9): failed to induce signaling

**Q.** For “PAMP-37: LL-37 ortholog from pig, SEQ ID NO: 22 (GLLSRLRDFLSDRGRRLGEKIERIGQKIKDLSEFFQS; (1)..(37) Pig PMAP-37; listed as Sus scrofa)”, which “Enhancement of TLR3 signaling / poly(I:C)-induced IL-6, in words” value (TLR3 signaling) is on record?
**A.** failed to enhance signaling

**Q.** And the “Enhancement of IL-6 production / signaling by Reo S4, in words” value (Reovirus dsRNA, Reo S4)?
**A.** failed to enhance signaling

**Q.** And the “Induction of signaling by the ssDNA ligand for Toll-like receptor 9, in words” value (Toll-like receptor 9)?
**A.** failed to induce signaling

**Q.** With “LLGDFFRKSKEKIGKEFKRIVQRIKDFLR ((1)..(29) LL29; listed as Homo sapiens) [LL-29]” as the substance, how does the “Suppression of TLR4 signaling / LPS-induced IL-6, in words” value (TLR4 signaling; BEAS-2B cells) read?
**A.** retained the ability to suppress TLR4 signaling in response to LPS

**Q.** What about the “IL-6 production (%) LPS-depend.” value (TLR4 signaling; BEAS-2B cells induced with 1.0 μg/ml of LPS, LL-37 100) of the same substance?
**A.** 143 ± 18%

**Q.** What about the “IL-6 production in response to LPS, % of the control level without either of the two peptides” value (TLR4 signaling; four molar excess of LL-29 to LL-37, BEAS-2B cells) of the same substance?
**A.** 64%

**Q.** What about the “IL-6 production (%) poly(I:C)-depend.” value (TLR3 signaling; BEAS-2B cells induced with 130 ng/ml of poly(I:C), LL-37 100) of the same substance?
**A.** 47 ± 3%

**Q.** What about the “Hydrodynamic radius (nm) pH 5.8” value ([1]; 1.0 μM peptide, phosphate buffer pH 5.8) of the same substance?
**A.** 8 nm

**Q.** And the “Hydrodynamic radius (nm) pH 7.4” value ([1]; 1.0 μM peptide, phosphate buffer pH 7.4)?
**A.** 1106 nm

**Q.** And the “pH-dependent dissociation of peptide particles, in words” value ([1]; acidification of phosphate buffer)?
**A.** readily dissociated into nanometer-sized particles; also recorded: dissociated as a function of pH

**Q.** And the “Interaction with fLL-37, in words” value (f-LL37)?
**A.** interacted with fLL-37 to the same degree as LL-37; also recorded: comparable ability to interact with fLL-37

**Q.** And the “MIC assay result, peptide without antibiotic” value ([2]; peptide 10 μg/ml, antibiotic: None)?
**A.** growth

**Q.** What about the “MIC (μg/ml) of Doxorubicin in the presence of peptide” value ([2]; peptide final conc. 10 μg/ml) of the same substance?
**A.** ≤0.06 µg/mL

**Q.** And the “MIC (μg/ml) of Kanamycin in the presence of peptide” value ([2]; peptide final conc. 10 μg/ml)?
**A.** ≤0.5 µg/mL

**Q.** And the “MIC (μg/ml) of Trimethoprim in the presence of peptide” value ([2]; peptide final conc. 10 μg/ml)?
**A.** ≤0.06 µg/mL

**Q.** What about the “Improvement of the MIC of antibiotics by peptide” value ([2]; with doxorubicin, kanamycin, trimethoprim) of the same substance?
**A.** at least 4 fold

**Q.** And the “IL-6 production with LL-37/poly(I:C) at four molar excess of peptide, in words” value ([3]; four molar excess of LL-29 relative to LL-37)?
**A.** comparable to the level observed in the absence of LL-37

**Q.** And the “Antagonism of LL-37 enhancement of TLR3 signaling (IL-6), in words” value ([3]; peptide added with LL-37/poly(I:C), BEAS-2B cells)?
**A.** reduced the enhancement of TLR3 signaling by LL-37 in a concentration-dependent manner

**Q.** And the “Effect of added peptide on co-localization of fLL-37 and TLR3, in words” value (TLR3)?
**A.** reduced the co-localization between fLL-37 and TLR3

**Q.** What about the “IL-6 production, peptide with poly(I:C), in words” value (FPRL-1 receptor; knockdown of either FPRL-1 or EGFR) of the same substance?
**A.** did not enhance IL-6 production

**Q.** And the “IL-6 production, peptide added along with LL-37 and poly(I:C), in words” value (FPRL-1 receptor; siRNA to FPRL-1 or nonspecific control)?
**A.** resulted in a reduction in IL-6 levels

Reference: patent US10138282B2, “Peptide antagonist of LL-37” (INDIANA UNIVERSITY RESEARCH AND TECHNOLOGY CORPORATION, priority 2014, dated 2018)
